Assay results as given in patent US6689349B1, “Skin protection agents containing a fragment mixture produced from hyaluronic acid by hydrolysis” (esparma GmbH, priority 1998, dated 2004).

Key:
HaCaT keratinocytes = test: toxicity test: DNA synthesis performance by BrdU incorporation; type: cell-based, human; settings: 24-hour incubation
Procedure: In order to characterise the influence of hyaluronic acid fragments of differing relative molar mass on the proliferation behaviour of human keratinocytes (HaCaT keratinocytes—made available by Prof. Dr. Norbert E. Fusenig: Deutsches Krebsforschungsinstitut Heidelberg, Germany), the DNA synthesis performance is determined with the aid of BrdU incorporation (Cell Proliferation ELISA, BrdU calorimetric—Boehringer Mannheim, Mannheim, Germany) into the DNA after a 24-hour period of incubation. For the following hyaluronic acid fragments examined, no toxic reaction of the cells could be observed.

[1] = lucigenin-reinforced xanthine oxidase test (radical binding, chemiluminescence); type: biochemical; settings: cell-free system
Procedure: The property of binding reducing radicals, is measured in cell-free systems with a lucigenin-reinforced xanthine oxidase test on the basis of the conversion of hypoxanthine to uric acid. The O2-radicals produced in this process can be detected with lucigenin by relative chemiluminescence measurement. By the radical scavengers present, the O2-radicals are neutralised and the chemiluminescence yield reduced. […] An amount of 1 mg of the hyaluronic acid fragment according to the invention with a relative molar mass of 100 to 160 kD has a radical-binding activity which corresponds to that of 200 to 400 μg allopurinol. Hyaluronic acid with a relative molar mass of 1,800 kD has, on the other hand, a negligible radical-binding activity (Pierce, L. A., W. O. Tarnow-Mordi and I. A, Cree: Antibiotics Effects on Phagocyte Chemilunieszence in Vitro. In J. Clin. Lab. Res.- (1995) 25, 93-98).

hyaluronic acid
toxic reaction of the cells / tolerance (DNA synthesis performance, BrdU incorporation) (HaCaT keratinocytes): very good tolerance
radical-binding activity [1]: negligible
